Measurements: US20260248881A1, “PHARMACEUTICAL COMPOSITION COMPRISING FOXM1 INHIBITOR AND IMMUNE CHECKPOINT INHIBITOR FOR PREVENTING OR TREATING CANCER” (National Cancer Center, priority 2022, published 2026)

Assays:
H1299 and PC9 cells = assay: Apoptotic cell death assay (Annexin V/PI staining); format: cell-based, human; settings: 5 μM TST or siFOXM1
Method: H1299 and PC9 cells (1×10^5) were cultured in 6-well plates, transfected with siFOXM1 or NC siRNA or treated with 5 μM TST or dimethyl sulfoxide (DMSO), and then stained using fluorescein isothiocyanate (FITC) Annexin V Apoptosis Detection Kit I (#556547; BD Biosciences). Cells were analyzed within 1 hour to reduce side effects due to staining, and flow cytometry was performed using a FACSVerse cell analyzer (BD Biosciences).

CD274 (PD-L1) = assay: Semi-quantitative PCR of PD-L1 (CD274) transcript in H1299 and PC9 cells; format: cell-based, human; settings: TST in the presence of IFN-γ
Method: H1299 and PC9 cells purchased from ATCC (Manassas, VA, USA) were cultured in RPMI-1640 medium (#10-040-CV; Corning, New York, NY, USA) supplemented with 10% […] (#35-010-CV; Corning) and penicillin-streptomycin antibiotic cocktail (#15240062; Thermo Fisher Scientific, Waltham, MA, USA) at 37° C. and 5% CO2.
H1299 and PC9 LUAD cells were transfected with 5 nM negative control (NC) or FOXM1 siRNA (siFOXM1) (QIAGEN, Hilden, Germany) using Lipofectamine RNAiMAX (#13778150; Thermo Fisher Scientific). Human FOXM1 isoform b (pFLAG-FOXM1)-expressing plasmid or empty vector (pFLAG-CMV; mock) was transfected into H1299 and PC9 cells using Lipofectamine 2000 reagent (#11668019; Thermo Fisher Scientific) according to the manufacturer's instructions.
Total RNA was extracted and purified using the RNeasy kit (#74004; QIAGEN) according to the manufacturer's protocol. Reverse transcription of mRNA was performed using a PrimeScript 1st Strand CDNA Synthesis Kit (#6110A; TaKaRa Bio, Otsu, Japan). Quantitative PCR was performed using primers specific for the CD274 and FOXM1 genes designed using Primer 3 software. A β-actin gene was used as an internal control group to normalize target gene expression.

MC38 cells = assay: Apoptotic cell death assay (Annexin V assay), MC38; format: cell-based, mouse; settings: TST 5 μM, 48 hours
Method: MC38 cells (8.0×10^4) were seeded in 6-well plates and cultured for 24 hours. The cells were treated with TST (5 μM) for 48 hours, harvested, and analyzed via FACS-Verse using a BD FITC Annexin V Apoptosis Detection Kit I (Cat No. 556547; BD Biosciences, San Diego, CA, USA) according to the manufacturer's protocol.

[1] = system: human primary coronary artery smooth muscle cells (SMCs); assay: Cell viability assay (WST-1), SMC normal cells; format: cell-based; settings: 48 hours
Method: MC38 and SMC were cultured at a density of 3×10^3 cells/well in 96-well plates. The cells were treated with various concentrations of TST dissolved in the medium for 48 hours, then WST-1 reagent (MK400; Takara) was added at a concentration of 10 μL/well and cultured for 1 hour. The absorbance was measured at 450 nm for further analysis.

CD274 promoter = assay: ChIP-PCR of FOXM1 binding to CD274 promoter; format: cell-based, human; settings: H1299 and PC9; vs respective controls
Method: To cross-link proteins to DNA, H1299 and PC9 cells were treated with 0.7% formaldehyde at 37° C. for 10 minutes. Cross-linking was quenched by adding glycine to the culture medium at a final concentration of 0.125 M for 5 minutes. The cells were sonicated using a Bioruptor Next Gen sonicator (Diagenode, Denville, NJ, USA) for 5 minutes in 30 s on/30 s off cycle to obtain ~500 bp DNA fragments. The sonicated cell lysates containing genomic DNA fragments were pre-cleared to eliminate unwanted nonspecific components. ChIP was performed using antibody against FOXM1 (#sc-271746, Santa Cruz Biotechnology) with rotation at 4° C. overnight, followed by various washing steps, reverse cross-linking, and protein digestion with proteinase K (#P2308; Sigma-Aldrich, St. Louis, MO, USA). The immunoprecipitated DNA fragments were purified using a phenol-chloroform method, and the purified DNA pellets were resuspended in TE buffer (pH 8.0) and used for PCR. Primers specifically detecting a FOXM1 binding region were designed using a Primer3 tool for chromatin immunoprecipitation-PCR (ChIP-PCR) (Table 1).

[2] = system: c-MYC, cyclin B1, cyclin E1, and cyclin D1; assay: Western blot of c-MYC and cyclins in H1299 and PC9 cells; format: cell-based, human; settings: both cell lines
Method: Cells were lysed in RIPA buffer supplemented with complete mini protease inhibitor cocktail (#04693124001; Roche, Basel, Switzerland) and kept on ice for 30 minutes. Equal amounts of protein were evenly loaded and analyzed by sodium dodecyl sulfate-polyacrylamide gel electrophoresis (SDS-PAGE), and transferred to polyvinylidene difluoride (PVDF) membranes (#IPVH 00010; Millipore, Billerica, MA, USA) at 100 V for 1 hour. Primary antibodies (Santa Cruz Biotechnology, Texas, USA) specific for FOXM1 (#sc-271746), cyclin E1 (#sc-481), α-tubulin (#sc-8035), and β-actin (#sc-47778); PD-L1 (#13684S), cyclin D1 (#2978S), cyclin B1 (#4138S), c-MYC (#5605S), and poly(ADP-ribose) polymerase (PARP, #9542S; Cell Signaling Technology, Beverly, MA, USA) were used to probe proteins of interest. A horseradish-peroxidase-conjugated secondary antibodies specific to the primary antibody was used to detect proteins using pico-enhanced chemiluminescence substrate (#34577; Thermo Fisher Scientific).

Which “apoptotic cell population (annexin V/PI positive cells)” value (H1299 and PC9 cells) does the source give for thiostrepton [TST] here?
The value was “significantly increased in a time-dependent manner”.

And the “PD-L1 mRNA expression” value (CD274 (PD-L1))?
Its value is “concentration-dependent decrease”.

And the “apoptotic cell death (flow cytometry)” value (MC38 cells)?
Its value is “significantly increased apoptotic cell death”.

And the “in vitro cytotoxicity on SMC normal cells” value [1]?
The value was “no significant apoptotic cell death”.

And the “FOXM1 binding to the CD274 promoter” value (CD274 promoter)?
The value was “dramatic decrease”.

What about the “protein levels of c-MYC, cyclin B1, and cyclin D1” value [2] of the same substance?
Its value is “significantly decreased”.
